Results taken from ChEMBL document CHEMBL1138109, “Semicarbazone-based inhibitors of cathepsin K, are they prodrugs for aldehyde inhibitors?” (Bioorg Med Chem Lett, 2006).
Values after ≈ are worked out from the molar mass of the structure shown. Each block holds one molecule with its values, some of them ahead of it.

Key:
Cathepsin K [1] = target: T1, Cathepsin K (Homo sapiens, UniProt P43235); test: Inhibition of recombinant human cathepsin K in a fluorescence assay
T1 sequence (P43235 whole entry): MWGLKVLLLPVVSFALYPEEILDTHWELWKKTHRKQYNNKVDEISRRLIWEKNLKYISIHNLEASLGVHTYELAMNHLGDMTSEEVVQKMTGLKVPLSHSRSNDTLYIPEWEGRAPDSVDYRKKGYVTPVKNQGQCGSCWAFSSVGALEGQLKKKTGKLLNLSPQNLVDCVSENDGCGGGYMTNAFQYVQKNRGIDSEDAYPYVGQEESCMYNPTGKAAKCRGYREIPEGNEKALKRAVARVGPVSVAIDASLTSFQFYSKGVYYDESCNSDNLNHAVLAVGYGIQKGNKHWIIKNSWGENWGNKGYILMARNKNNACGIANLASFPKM

Pro-cathepsin H = target: T2, Pro-cathepsin H (Homo sapiens, UniProt P09668); test: Inhibition of recombinant human cathepsin H in a fluorescence assay
T2 sequence (P09668 whole entry): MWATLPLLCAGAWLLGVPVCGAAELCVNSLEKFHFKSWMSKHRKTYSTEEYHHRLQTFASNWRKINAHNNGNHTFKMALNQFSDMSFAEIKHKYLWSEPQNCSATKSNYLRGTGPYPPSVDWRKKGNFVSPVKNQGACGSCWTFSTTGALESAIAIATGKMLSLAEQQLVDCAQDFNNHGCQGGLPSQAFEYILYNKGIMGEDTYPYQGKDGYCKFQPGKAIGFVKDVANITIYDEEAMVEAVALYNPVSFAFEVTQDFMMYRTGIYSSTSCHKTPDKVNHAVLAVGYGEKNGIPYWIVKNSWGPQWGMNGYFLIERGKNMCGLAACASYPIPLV

[2] = Permeability across MDCK cells; assay type: ADME, cell-based, Canis lupus familiaris; details: dog
[3] = Solubility in fasted state-simulated intestinal fluid at pH 6.8; assay type: physicochemical
[4] = (§1) Terminal half life in iv dosed Han Wistar rat; assay type: ADME, organism-based; details: Han Wistar, in vivo, read-out: beta t1/2
[5] = Clearance in Han Wistar rat; assay type: ADME, organism-based; details: in vivo
[6] = (§2) Volume of distribution in Han Wistar rat; assay type: ADME, organism-based; details: Han Wistar, in vivo
[7] = Oral bioavailability in male Han Wistar rat; assay type: ADME, organism-based; details: in vivo
Cathepsin B = Cathepsin B (Homo sapiens, UniProt P07858); test: Inhibition of recombinant human cathepsin B in a fluorescence assay
Procathepsin L = Procathepsin L (Homo sapiens, UniProt P07711); test: Inhibition of recombinant human cathepsin L in a fluorescence assay
Rattus norvegicus [8] = test: as §1; assay type: ADME, organism-based; details: in vivo
Rattus norvegicus [9] = species: Rattus norvegicus; test: as §2; assay type: ADME, organism-based; details: in vivo
Cathepsin K [10] = target: T3, Cathepsin K (Rattus norvegicus, UniProt O35186); test: Inhibition of rat cathepsin K
T3 sequence (O35186 whole entry): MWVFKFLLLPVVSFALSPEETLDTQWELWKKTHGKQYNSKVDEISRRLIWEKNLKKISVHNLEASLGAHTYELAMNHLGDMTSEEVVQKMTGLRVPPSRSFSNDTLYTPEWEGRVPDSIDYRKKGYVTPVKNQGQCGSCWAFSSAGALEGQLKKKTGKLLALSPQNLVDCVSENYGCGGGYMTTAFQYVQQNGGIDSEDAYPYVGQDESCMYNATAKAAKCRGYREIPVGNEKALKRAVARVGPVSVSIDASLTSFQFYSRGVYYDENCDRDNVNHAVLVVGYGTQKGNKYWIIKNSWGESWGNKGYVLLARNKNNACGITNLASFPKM

Procathepsin L, sequence (P07711 whole entry): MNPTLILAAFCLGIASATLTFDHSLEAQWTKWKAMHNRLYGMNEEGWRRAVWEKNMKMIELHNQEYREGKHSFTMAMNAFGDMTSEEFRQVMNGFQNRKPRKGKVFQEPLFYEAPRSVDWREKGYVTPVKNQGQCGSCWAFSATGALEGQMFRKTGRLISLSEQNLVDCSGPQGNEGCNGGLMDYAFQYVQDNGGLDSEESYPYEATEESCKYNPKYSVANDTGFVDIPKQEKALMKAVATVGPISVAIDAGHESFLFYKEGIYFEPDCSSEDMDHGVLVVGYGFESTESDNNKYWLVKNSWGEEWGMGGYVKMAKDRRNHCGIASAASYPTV

SMILES: CCCC[C@@H](/C=N/NC(=O)OC(C)C)NC(=O)OC(C)(C)C
IC50 (Cathepsin K [1]): 0.13 µM

SMILES: CCCC[C@@H](/C=N/NC(=O)SC(C)C)NC(=O)OC(C)(C)C
IC50 (Cathepsin K [1]): 0.83 µM

SMILES: CCCC[C@@H](/C=N/NC(=O)CC(C)C)NC(=O)OC(C)(C)C
IC50 (Cathepsin K [1]): 0.2 µM

SMILES: CCCC[C@@H](/C=N/NC(=O)NC)NC(=O)OC(C)(C)C
IC50 (Cathepsin K [1]): 0.28 µM

SMILES: CCCC[C@@H](/C=N/NC(=O)NC(C)(C)C)NC(=O)OC(C)(C)C
IC50 (Cathepsin K [1]): 0.16 µM

SMILES: CCCC[C@@H](/C=N/NC(=O)NCC(=O)OCC)NC(=O)OC(C)(C)C
IC50 (Cathepsin K [1]): 0.52 µM

SMILES: CCCC[C@@H](/C=N/N(C)C(=O)NCCc1ccccc1)NC(=O)OC(C)(C)C
IC50 (Cathepsin K [1]): 11 µM

SMILES: CCCC[C@@H](/C=N/NC(=O)N1CCc2ccccc21)NC(=O)OC(C)(C)C
IC50 (Cathepsin K [1]): 0.048 µM
IC50 (Cathepsin B): 35 µM
IC50 (Pro-cathepsin H): > 13 µM
IC50 (Procathepsin L): 14 µM
Papp [2]: 15 ×10⁻⁶ cm/s
solubility [3]: 33 µg/mL (≈ 88.1 µM)
beta t1/2 (Rattus norvegicus [8]): 10 min
Vdss (Rattus norvegicus [9]): 0.54 L/kg
bioavailability [7]: 0%

SMILES: CCCC[C@@H](/C=N/NC(=O)N1CCOCC1)NC(=O)O[C@H](Cc1ccccc1)C(C)C
IC50 (Cathepsin K [1]): 0.00033 µM
IC50 (Cathepsin B): 0.018 µM
IC50 (Pro-cathepsin H): 0.19 µM
IC50 (Procathepsin L): 0.012 µM

SMILES: CCCC[C@@H](/C=N/NC(=O)Nc1ccccc1)NC(=O)OC(C)(C)C
IC50 (Cathepsin K [1]): 0.4 µM

SMILES: CCCC[C@@H](/C=N/NC(=O)N1CCOCC1)NC(=O)O[C@@H](C)Cc1ccccc1
IC50 (Cathepsin K [1]): 0.00094 µM
IC50 (Cathepsin B): 0.27 µM
IC50 (Pro-cathepsin H): 0.23 µM
IC50 (Procathepsin L): 0.54 µM
Papp [2]: 14 ×10⁻⁶ cm/s
solubility [3]: 60 µg/mL (≈ 148 µM)
beta t1/2 (Rattus norvegicus [8]): 9 min
Vdss (Rattus norvegicus [9]): 0.22 L/kg
bioavailability [7]: 0%
IC50 (Cathepsin K [10]): 0.13 µM

SMILES: CCCC[C@@H](/C=N/NC(=O)NC(=O)OC)NC(=O)OC(C)(C)C
IC50 (Cathepsin K [1]): 0.18 µM

SMILES: CCCC[C@@H](C=O)NC(=O)OC(C)(C)C
IC50 (Cathepsin B): 32 µM
IC50 (Pro-cathepsin H): > 13 µM
IC50 (Procathepsin L): 8.9 µM

SMILES: CCCC[C@@H](/C=N/N=C(N)N)NC(=O)OC(C)(C)C
IC50 (Cathepsin K [1]): 33 µM

SMILES: CCCC[C@@H](/C=N/NC(N)=O)NC(=O)OC(C)(C)C
IC50 (Cathepsin K [1]): 0.35 µM

SMILES: CCCC[C@@H](/C=N/NC(=O)N1CCc2ccccc21)NC(=O)OC1(Cc2ccccc2)CCCC1
IC50 (Cathepsin K [1]): 0.0011 µM
IC50 (Cathepsin B): 1.8 µM
IC50 (Pro-cathepsin H): > 13 µM
IC50 (Procathepsin L): 3.4 µM

SMILES: CCCC[C@@H](C=O)NC(=O)O[C@@H](C)Cc1ccccc1
IC50 (Pro-cathepsin H): 0.04 µM

The remaining lines, values ahead:

IC50 (Cathepsin K [1]): 0.072 µM
SMILES: CCCC[C@@H](/C=N/NC(=O)N(C)C)NC(=O)OC(C)(C)C

IC50 (Pro-cathepsin H): > 13 µM
SMILES: CCCC[C@@H](C=O)NC(=O)OC1(Cc2ccccc2)CCCC1

IC50 (Cathepsin K [1]): 0.059 µM
SMILES: CCCC[C@@H](/C=N/NC(=O)N1CCCc2ccccc21)NC(=O)OC(C)(C)C

IC50 (Cathepsin K [1]): 0.26 µM
SMILES: CCCC[C@@H](/C=N/NC(=O)NCCc1ccccc1)NC(=O)OC(C)(C)C

IC50 (Cathepsin K [1]): 0.072 µM
Papp [2]: 77 ×10⁻⁶ cm/s
solubility [3]: 380 µg/mL (≈ 1130 µM)
half-life [4]: 39 min
clearance [5]: 25 mL/min/kg
Vd [6]: 0.39 L/kg
bioavailability [7]: 26%
SMILES: CCCC[C@@H](/C=N/NS(=O)(=O)N(C)C)NC(=O)OC(C)(C)C

IC50 (Cathepsin K [1]): 0.031 µM
SMILES: CC(C)C[C@@H]([13CH]=O)NC(=O)OC(C)(C)C

IC50 (Cathepsin K [1]): 0.024 µM
SMILES: CCCC[C@@H](/C=N/NC(=O)C(F)(F)F)NC(=O)OC(C)(C)C

IC50 (Cathepsin K [1]): 1.1 µM
SMILES: CCCC[C@@H](/C=N/OC(=O)N1CCOCC1)NC(=O)OC(C)(C)C

IC50 (Cathepsin K [1]): 0.11 µM
SMILES: CC(C)C[C@@H](/[13CH]=N/NC(=O)N1CCOCC1)NC(=O)OC(C)(C)C

IC50 (Cathepsin K [1]): 0.52 µM
SMILES: CCCC[C@@H](/C=N/N(C)C(=O)N(C)CCc1ccccc1)NC(=O)OC(C)(C)C

IC50 (Cathepsin K [1]): 0.47 µM
SMILES: CCCC[C@@H](/C=N/N[N+]1=CSCC1)NC(=O)OC(C)(C)C

IC50 (Cathepsin K [1]): 0.036 µM
Papp [2]: 20 ×10⁻⁶ cm/s
solubility [3]: 71 µg/mL (≈ 217 µM)
beta t1/2 (Rattus norvegicus [8]): 18 min
Vdss (Rattus norvegicus [9]): 0.43 L/kg
bioavailability [7]: 0%
SMILES: CCCC[C@@H](/C=N/NC(=O)N1CCCC1)NC(=O)OC(C)(C)C

IC50 (Cathepsin K [1]): 0.035 µM
IC50 (Cathepsin B): 32 µM
IC50 (Pro-cathepsin H): > 13 µM
IC50 (Procathepsin L): 11 µM
Papp [2]: 6.2 ×10⁻⁶ cm/s
solubility [3]: 120 µg/mL (≈ 350 µM)
half-life [4]: 22 min
clearance [5]: 43 mL/min/kg
Vd [6]: 0.57 L/kg
bioavailability [7]: 3.9%
SMILES: CCCC[C@@H](/C=N/NC(=O)N1CCOCC1)NC(=O)OC(C)(C)C

IC50 (Cathepsin K [1]): 0.49 µM
SMILES: CCCC[C@@H](/C=N/NC(=O)NCC)NC(=O)OC(C)(C)C

IC50 (Cathepsin K [1]): 0.058 µM
SMILES: CCCC[C@@H](/C=N/NC(=O)N1CCCCC1)NC(=O)OC(C)(C)C

IC50 (Cathepsin K [1]): 0.04 µM
SMILES: CCCC[C@@H](/C=N/NC(=O)N(CC)CC)NC(=O)OC(C)(C)C

IC50 (Cathepsin K [1]): 0.17 µM
SMILES: CCCC[C@@H](/C=N/N=C(\S)NC(C)C)NC(=O)OC(C)(C)C

IC50 (Cathepsin K [1]): 0.41 µM
SMILES: CCCC[C@@H](/C=N/NC(=O)NCc1ccccc1)NC(=O)OC(C)(C)C

IC50 (Cathepsin K [1]): 0.045 µM
SMILES: CCCC[C@@H](/C=N/NC(=O)N(C)CCc1ccccc1)NC(=O)OC(C)(C)C

IC50 (Cathepsin K [1]): 0.22 µM
SMILES: CCCC[C@@H](/C=N/NC(=O)c1ccccc1)NC(=O)OC(C)(C)C

IC50 (Cathepsin K [1]): 0.47 µM
SMILES: CCCC[C@@H](/C=N/NC(=O)NCCC(=O)OCC)NC(=O)OC(C)(C)C

IC50 (Cathepsin B): 0.027 µM
IC50 (Pro-cathepsin H): 0.018 µM
IC50 (Procathepsin L): 0.012 µM
SMILES: CCCC[C@@H](C=O)NC(=O)O[C@H](Cc1ccccc1)C(C)C

IC50 (Cathepsin K [1]): 0.17 µM
SMILES: CCCC[C@@H](/C=N/NC(=O)NC(C)C)NC(=O)OC(C)(C)C

IC50 (Cathepsin K [1]): 0.093 µM
SMILES: CCCC[C@@H](/C=N/NC(=O)N1CCc2ccccc2C1)NC(=O)OC(C)(C)C
